Measurements taken from patent publication US20210100905A1, “APPLICATION OF COMPOUND OR TRADITIONAL CHINESE MEDICINE EXTRACT IN PREPARATION OF NUCLEIC ACID DELIVERY AGENT, AND RELATED PRODUCTS” (INSTITUTE OF BASIC MEDICAL SCIENCES CHINESE ACADEMY OF …, priority 2018, published 2021).

What was measured:
[1] = tested on: A549 cell (human lung adenocarcinoma cell); assay: In vitro delivery of lipid nucleic acid mixture, RT-qPCR of intracellular small RNA; format: cell-based; details: single lipid prepared by boiling or reverse evaporation method; RNA 100 nM; FIGS. 76, 91, 96, 99, 104, 106, 107
Experimental: 3.1 NCI-N87 cell (gastric cancer cell), MRC-5 cell (lung fibroblast), A549 cell (lung cancer cell) were cultured to logarithmic growth phase, and then plated to a six-well plate at cell density of 1×10^6/2 mL medium/well; MRC-5 cell was cultured in Eagle's MEM medium (MEM, Gibco); A549 cell was cultured in Ham's F-12 medium (HyClone); NCI-N87 cell was cultured in RPMI-1640 medium (HyClone); followed by incubation overnight at 37° C., and the follow-up experiments were performed after the cells were attached to the walls.
3.3 After co-incubation with the small RNA for 3 hours, the cells were washed 2-3 times with PBS. The cells were harvested with TRIzol lysis buffer, and the total RNA was extracted. The abundance of small RNA that entered cells was detected by RT-qPCR, and the localization of RNA was detected by fluorescence in situ hybridization; protocols of each detection method were as follows:
1) The sRNA was reverse transcribed to cDNA: Reverse Transcription Kit (High-Capacity cDNA Reverse Transcription Kits, Applied Biosystems, cat. No. 4368813) was used to reverse transcribe sRNA into cDNA by stem-loop method, and the reverse transcription system was as follows: RNA template (150 ng/μl) 10 μl, 10×RT buffer, 2.0 μl, 25× dNTP Mix (100 mM) 0.8 μl, U6 RT stem-loop primer 2.0 μl, HJT-sRNA-RT-m7 stem-loop primer 2.0 μl, MultiScribe™ reverse transcriptase 1.0 μl, RNase inhibitor 1.0 μl, nuclease-free H2O 1.2 μl, loaded into a PCR reactor after brief centrifugation, the reaction conditions were as follows: (1) 25° C., 10 min; (2) 37° C., 120 min; (3) 85° C., 5 min; (4) 4° C., termination of the reaction. 20 μl RNase-free ddH2O was added to make up the final volume to 40 μl after the reaction. The stem-loop primer used in the reverse transcription process was synthesized by Beijing Tsingke Biotechnology Co., Ltd.
2) Quantitative PCR amplification reaction: the qPCR reaction system has a total volume of 10 μl, containing: 5 μL 2×SYBR Green Master Mix, 0.5 μl forward primer ([…]), 0.5 μl reverse primer (10 μM), 1 μl cDNA by reverse transcription, 3 RNase-free dH2O. LightCycler 480 fluorescence quantitative PCR instrument was used, and the PCR reaction conditions were: 95° C. for 5 min for pre-denaturation, followed by PCR amplification cycle: (1) 95° C., 10 s; (2) 55° C., 10 s; (3) 72° C. , 20 s; a total of 40 cycles; 40° C. for 10 s in the end to cool down. Both the forward and reverse primers of the amplification reaction were designed and synthesized by Beijing Tsingke Biotechnology Co., Ltd.
3) The relative expression level was calculated by 2-ΔCt method.
100 μl lipid in diethyl ether solution was prepared, and grouped according to the lipid numbers shown in Table 1 (the lipid concentrations are shown in the table below). To the lipid solution was added 20 μl nucleic acid solution (HJT sRNA or siRNA) at the volume ratio of 5:1, and sonicated for after 3 min. The diethyl ether was removed by evaporation at 55° C., and then 100 μl DEPC water was added for hydration to give nucleic acid lipid mixture.
100 μL of the nucleic acid solution (HJT sRNA or siRNA) was added to 2-5 μL of the lipid in chloroform (the concentration was shown in Table 1), mixed, and heated at 80-100° C. for 15-30 min to give nucleic acid lipid mixture.
3.1.1 MRC-5 cell (pulmonary embryonic fibroblast), A549 cell (human lung adenocarcinoma cell), Caco-2 cell (human colon adenocarcinoma cell) (purchased from the Cell Resource Center of the Institute of Basic Medical Sciences, Chinese Academy of Medical Sciences) were cultured to logarithmic growth phase, then plated into 12-well plates at a cell density of 6×10^5/1 mL medium/well; MRC-5 and Caco-2 cells were cultured in Eagle's MEM medium (MEM, Gibco); A549 cells were cultured in Ham's F-12 medium (HyClone); followed by incubation overnight at 37° C., and the follow-up experiments were performed after the cells were attached to the walls. […]

A549 cells = assay: Digital PCR (ddPCR) detection of the efficiency of nucleic acid delivery by lipid; format: cell-based, human; details: boiling or reverse evaporation method; samples after 6 hours (No. 39: reverse evaporation, 6 and 12 hours)
Text: 2.1 Experimental materials: A549 cells were purchased from the Cell Center of the Institute of Basic Medical Sciences, Chinese Academy of Medical Sciences, TRIzol lysis buffer was purchased from Sigma, High capacity cRNA Reverse Transcription Kit was purchased from ABI, USA, and the digital PCR related reagents were purchased from Bio-Rad USA.
(§1) 2.2 Experimental method: the total cellular RNA was collected and extracted by TRIzol lysis buffer according to the above methods, and reverse transcribed to cDNA using High capacity cRNA Reverse Transcription Kit, and the cDNA from different groups was subject to digital PCR reaction. Refering to the QX200 Droplet Reader and QuantaSoft Software manual for the protocols, the results were analyzed using QuantaSoft software.
as §1, with “method:” for “method: the”, “total” for “total cellular”, “method,” for “methods,”, “subjected” for “subject”, “Refer” for “Refering”, “protocols;” for “protocols,”
(§2) 2.2 Experimental method: Total RNA was collected and extracted by TRIzol lysis buffer according to the above method, and reverse transcribed to cDNA using TaqMan™ MicroRNA Reverse Transcription KitHigh, and the cDNA from different groups was subjected to digital PCR reaction. Refer to the QX200 Droplet Reader and QuantaSoft Software manual for the protocols; the results were analyzed using QuantaSoft software.
as §2, with “reversed” for “reverse transcribed”, “High capacity cRNA” for “TaqMan™ MicroRNA”, “Kit,” for “KitHigh,”

## CCCCCC/C=C\CCCCCCCCCC(=O)O[C@H](COC(=O)CCCCCCC/C=C\CCCCCC)COP(=O)(O)OCCN [No. 39, (2-aminoethoxy) [(2R)-3-[(9Z)-hexadec-9-enoyloxy]-2-[(11Z)-octadec-11-enoyloxy]propoxy] phosphinic acid]
[1]
  delivery of HJT-sRNA-m7 double-stranded RNA into A549 cells (real-time PCR): delivered double-stranded RNA into A549 cells
A549 cells
  delivery of HJT-sRNA-m7 dsRNA into A549 cells (ddPCR): could effectively deliver HJT-sRNA-m7 dsRNA into A549 cells
